Source: patent US12351580B2, “NLRP3 modulators” (Innate Tumor Immunity, Inc., priority 2017, dated 2025)

What was measured:
TLR8 = molecular target: T1, TLR8 (Homo sapiens, UniProt Q9NR97); experiment: In vitro human TLR8 binding reporter assay (HEK-Blue, NF-kB/AP1-inducible SEAP); format: cell-based; settings: activity range symbols
T1 construct: host or cells: HEK-Blue cells (human HEK) co-expressing TLR8 and an NF-kB/AP1-inducible SEAP reporter
T1 sequence (Q9NR97 27-1041): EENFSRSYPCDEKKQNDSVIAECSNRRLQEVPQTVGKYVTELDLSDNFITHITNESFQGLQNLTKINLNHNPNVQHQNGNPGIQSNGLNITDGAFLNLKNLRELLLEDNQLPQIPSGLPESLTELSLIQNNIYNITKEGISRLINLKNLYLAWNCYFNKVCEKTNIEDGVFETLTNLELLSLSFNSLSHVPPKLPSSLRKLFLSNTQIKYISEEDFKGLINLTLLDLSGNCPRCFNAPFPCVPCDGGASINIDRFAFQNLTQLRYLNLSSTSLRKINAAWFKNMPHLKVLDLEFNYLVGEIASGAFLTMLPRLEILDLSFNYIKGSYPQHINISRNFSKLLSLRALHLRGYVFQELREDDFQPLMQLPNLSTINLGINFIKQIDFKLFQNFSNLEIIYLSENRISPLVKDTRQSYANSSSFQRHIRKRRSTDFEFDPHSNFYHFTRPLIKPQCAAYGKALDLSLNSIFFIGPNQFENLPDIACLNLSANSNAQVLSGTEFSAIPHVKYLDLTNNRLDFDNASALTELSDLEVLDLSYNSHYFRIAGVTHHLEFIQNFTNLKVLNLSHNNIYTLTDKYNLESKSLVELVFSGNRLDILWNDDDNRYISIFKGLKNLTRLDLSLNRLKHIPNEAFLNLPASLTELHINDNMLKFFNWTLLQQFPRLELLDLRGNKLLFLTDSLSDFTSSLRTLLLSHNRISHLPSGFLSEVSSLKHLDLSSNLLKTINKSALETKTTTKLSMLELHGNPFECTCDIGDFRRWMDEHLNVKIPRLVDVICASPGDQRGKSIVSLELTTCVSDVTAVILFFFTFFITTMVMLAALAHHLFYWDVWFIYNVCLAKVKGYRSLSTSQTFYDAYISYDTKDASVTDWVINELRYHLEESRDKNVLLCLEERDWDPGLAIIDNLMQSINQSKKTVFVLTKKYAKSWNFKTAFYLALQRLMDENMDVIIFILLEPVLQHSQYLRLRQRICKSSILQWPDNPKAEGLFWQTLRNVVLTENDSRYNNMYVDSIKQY
Description: (§1) In Vitro Human TLR7 and TLR8 Binding Reporter Assays
(§2) Logarithmically-growing human HEK-Blue cells co-expressing a TLR7 or TLR8 gene and a NF-kB/AP1-inducible SEAP (secreted embryonic alkaline phosphatase; Invivogen, San Diego, CA) reporter gene are added to individual wells of a 384-well plate (15,000 cells per 20 μL per well) and maintained for 24 h at 37° C., 5% CO2. Test compounds or DMSO are distributed to separate wells the next day using acoustic liquid handling technology (100 nL per well) and cells are subsequently incubated for 18 h at 37° C., 5% CO2. Cellular SEAP production is measured using an Envision plate reader instrument thirty minutes after adding freshly-made Quanti-Blue reagent (prepared by following manufacturer instructions; Invivogen, San Diego, CA) to the HEK-Blue TLR Nf-kB-SEAP cell reactions. All EC50 values (half-maximal effective concentration) are determined using proprietary data analysis software.

TLR7 = molecular target: T2, TLR7 (Homo sapiens, UniProt Q9NYK1); experiment: In vitro human TLR7 binding reporter assay (HEK-Blue, NF-kB/AP1-inducible SEAP); format: cell-based; settings: activity range symbols
T2 construct: host or cells: HEK-Blue cells (human HEK) co-expressing TLR7 and an NF-kB/AP1-inducible SEAP reporter
T2 sequence (Q9NYK1 27-1049): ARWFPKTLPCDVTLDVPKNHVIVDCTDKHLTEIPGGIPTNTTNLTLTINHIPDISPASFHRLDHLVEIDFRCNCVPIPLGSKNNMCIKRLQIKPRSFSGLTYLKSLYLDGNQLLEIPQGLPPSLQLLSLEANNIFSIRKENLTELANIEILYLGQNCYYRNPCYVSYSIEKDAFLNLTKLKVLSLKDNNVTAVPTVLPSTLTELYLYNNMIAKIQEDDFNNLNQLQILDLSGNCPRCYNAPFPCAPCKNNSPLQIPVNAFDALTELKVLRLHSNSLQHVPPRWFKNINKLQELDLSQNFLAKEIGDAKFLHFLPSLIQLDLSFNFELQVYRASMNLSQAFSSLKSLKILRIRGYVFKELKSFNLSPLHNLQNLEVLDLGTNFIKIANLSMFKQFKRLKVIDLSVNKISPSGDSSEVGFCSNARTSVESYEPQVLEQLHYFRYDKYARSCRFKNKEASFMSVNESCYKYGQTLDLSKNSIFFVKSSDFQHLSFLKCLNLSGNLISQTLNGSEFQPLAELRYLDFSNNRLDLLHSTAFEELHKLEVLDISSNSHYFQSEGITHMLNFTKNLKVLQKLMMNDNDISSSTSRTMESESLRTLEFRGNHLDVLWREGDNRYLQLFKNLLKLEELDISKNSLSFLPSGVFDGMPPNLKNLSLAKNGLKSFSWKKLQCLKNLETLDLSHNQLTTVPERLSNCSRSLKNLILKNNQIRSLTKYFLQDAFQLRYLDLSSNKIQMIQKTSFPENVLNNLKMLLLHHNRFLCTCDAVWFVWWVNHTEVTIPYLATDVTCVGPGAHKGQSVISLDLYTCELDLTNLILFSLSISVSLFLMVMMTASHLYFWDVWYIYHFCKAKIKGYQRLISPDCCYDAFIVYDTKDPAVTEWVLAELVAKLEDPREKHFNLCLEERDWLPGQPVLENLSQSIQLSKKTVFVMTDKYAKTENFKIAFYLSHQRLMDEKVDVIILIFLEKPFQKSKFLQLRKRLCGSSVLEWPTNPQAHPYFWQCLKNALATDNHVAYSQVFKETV
Description: as §1, §2

EC50 (TLR8): > 100 µM
EC50 (TLR7): > 100 µM
Structure (SMILES): CCN(Cc1nc2c(N)nc3ccccc3c2n1CCC(=O)NC)C(C)=O [Compound 199]
